A short description of data set [1]: Cytotoxicity against human Rh4 cells transfected with CMV-Luc construct assessed as inhibition of cell growth at 100 uM by luciferase assay. Format: toxicity, cell-based. Conditions: rh4, 100 µM.
Data set [2] deals with PAX3/FOXO1 (Homo sapiens, UniProt P23760+Q12778). As to the kind of experiment: Inhibition of PAX3-FOXO1 driven transcriptional activity in human Rh4 cells transfected with ALK-Luc construct incubated for 24 hrs by luciferase assay. The class given is cell-based.
Data set [3] concerns the target T1, PAX3/FOXO1 (Homo sapiens) (UniProt Q12778+P23760). Description: Inhibition of PAX3-FOXO1 driven transcriptional activity in human Rh4 cells assessed as upregulation of KLF10 gene expression at 20 uM incubated for 6 hrs by GSEA analysis. Format: cell-based.
The target in data set [4] is T1, PAX3/FOXO1 (Homo sapiens). Description: Inhibition of PAX3-FOXO1 driven transcriptional activity in human Rh4 cells assessed as upregulation of SERPINE1 gene expression at 20 uM incubated for 6 hrs by GSEA analysis. Format: cell-based.
Data set [5] deals with Rh4. Description: Upregulation of TNF gene expression in human Rh4 cells. The class given is functional, cell-based.
Data set [6] has as its target T1, PAX3/FOXO1 (Homo sapiens). Description: Inhibition of PAX3-FOXO1 driven transcriptional activity in human Rh4 cells assessed as upregulation of TIMP3 gene expression at 20 uM incubated for 6 hrs by GSEA analysis. Format: cell-based.
The target in data set [7] is T1, PAX3/FOXO1 (Homo sapiens). Description: Inhibition of PAX3-FOXO1 driven transcriptional activity in human Rh4 cells assessed as upregulation of EPHA2 gene expression at 20 uM incubated for 6 hrs by GSEA analysis. Format: cell-based.
The target in data set [8] is T1, PAX3/FOXO1 (Homo sapiens). As to the kind of experiment: Inhibition of PAX3-FOXO1 driven transcriptional activity in human Rh4 cells assessed as upregulation of BCL2L1 gene expression at 20 uM incubated for 6 hrs by GSEA analysis. The class given is cell-based.
The target in data set [9] is T1, PAX3/FOXO1 (Homo sapiens). Description: Inhibition of PAX3-FOXO1 driven transcriptional activity in human Rh4 cells assessed as upregulation of VEGFA gene expression at 20 uM incubated for 6 hrs by GSEA analysis. The class given is cell-based.
In data set [10] the target is T1, PAX3/FOXO1 (Homo sapiens). As to the kind of experiment: Inhibition of PAX3-FOXO1 driven transcriptional activity in human Rh4 cells assessed as upregulation of SOX9 gene expression at 20 uM incubated for 6 hrs by GSEA analysis. The class given is cell-based.
Data set [11] has as its target T1, PAX3/FOXO1 (Homo sapiens). Description: Inhibition of PAX3-FOXO1 driven transcriptional activity in human Rh4 cells assessed as upregulation of DGKD gene expression at 20 uM incubated for 6 hrs by GSEA analysis. Format: cell-based.
Data set [12] has as its target T1, PAX3/FOXO1 (Homo sapiens). Description: Inhibition of PAX3-FOXO1 driven transcriptional activity in human Rh4 cells assessed as upregulation of ID1 gene expression at 20 uM incubated for 6 hrs by GSEA analysis. Format: cell-based.
Data set [13] deals with T1, PAX3/FOXO1 (Homo sapiens). Description: Inhibition of PAX3-FOXO1 driven transcriptional activity in human Rh4 cells assessed as upregulation of IL-11 gene expression at 20 uM incubated for 6 hrs by GSEA analysis. Format: cell-based.
Data set [14] deals with T1, PAX3/FOXO1 (Homo sapiens). As to the kind of experiment: Inhibition of PAX3-FOXO1 driven transcriptional activity in human Rh4 cells assessed as upregulation of GADD45B gene expression at 20 uM incubated for 6 hrs by GSEA analysis. The class given is cell-based.
The target of data set [15] is T1, PAX3/FOXO1 (Homo sapiens). Description: Inhibition of PAX3-FOXO1 driven transcriptional activity in human Rh4 cells assessed as upregulation of LBH gene expression at 20 uM incubated for 6 hrs by GSEA analysis. The class given is cell-based.
Data set [16] has as its target T1, PAX3/FOXO1 (Homo sapiens). Description: Inhibition of PAX3-FOXO1 driven transcriptional activity in human Rh4 cells assessed as upregulation of TNFRSF12A gene expression at 20 uM incubated for 6 hrs by GSEA analysis. The class given is cell-based.
Data set [17] addresses T1, PAX3/FOXO1 (Homo sapiens). Description: Inhibition of PAX3-FOXO1 driven transcriptional activity in human Rh4 cells assessed as upregulation of KIT gene expression at 20 uM incubated for 6 hrs by GSEA analysis. Format: cell-based.

Calls of active or inactive are those of the source. No cut-off for these calls is given here.

T1 sequence (P23760 whole entry, looked up): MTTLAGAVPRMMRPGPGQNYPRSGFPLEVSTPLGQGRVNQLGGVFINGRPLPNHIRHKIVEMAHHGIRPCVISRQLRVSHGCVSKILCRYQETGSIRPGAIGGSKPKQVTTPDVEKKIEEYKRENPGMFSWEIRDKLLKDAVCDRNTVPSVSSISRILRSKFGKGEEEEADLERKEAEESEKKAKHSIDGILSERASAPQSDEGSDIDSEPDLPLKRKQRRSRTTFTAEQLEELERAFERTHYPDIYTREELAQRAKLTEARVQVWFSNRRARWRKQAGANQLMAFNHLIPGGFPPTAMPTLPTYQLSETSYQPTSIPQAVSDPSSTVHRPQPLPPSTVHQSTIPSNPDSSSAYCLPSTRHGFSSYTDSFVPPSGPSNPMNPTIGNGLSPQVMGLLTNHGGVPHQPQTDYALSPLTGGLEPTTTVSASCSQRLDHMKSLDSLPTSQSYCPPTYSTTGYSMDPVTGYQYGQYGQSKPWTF
T1 sequence (Q12778 whole entry, looked up): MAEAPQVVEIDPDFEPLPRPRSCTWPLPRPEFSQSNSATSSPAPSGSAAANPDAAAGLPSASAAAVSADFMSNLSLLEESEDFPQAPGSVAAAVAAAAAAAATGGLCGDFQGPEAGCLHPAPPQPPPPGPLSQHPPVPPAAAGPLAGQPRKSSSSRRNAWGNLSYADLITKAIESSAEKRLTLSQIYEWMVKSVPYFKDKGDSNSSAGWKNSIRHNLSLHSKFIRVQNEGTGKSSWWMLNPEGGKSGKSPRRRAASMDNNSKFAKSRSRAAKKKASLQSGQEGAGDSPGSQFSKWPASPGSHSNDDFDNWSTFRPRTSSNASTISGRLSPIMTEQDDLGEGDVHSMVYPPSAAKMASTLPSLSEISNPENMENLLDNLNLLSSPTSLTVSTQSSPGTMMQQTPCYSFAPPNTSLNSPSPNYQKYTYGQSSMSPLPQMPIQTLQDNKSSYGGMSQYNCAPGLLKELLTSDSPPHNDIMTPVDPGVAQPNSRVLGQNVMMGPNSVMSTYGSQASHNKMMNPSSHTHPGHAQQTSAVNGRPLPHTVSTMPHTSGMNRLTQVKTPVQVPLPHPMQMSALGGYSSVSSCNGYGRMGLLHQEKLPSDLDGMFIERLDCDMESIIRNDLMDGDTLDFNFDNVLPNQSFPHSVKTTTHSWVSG
PAX3/FOXO1, sequence (Q12778 whole entry): as the sequence (Q12778 whole entry, looked up) above
PAX3/FOXO1, sequence (P23760 whole entry): as the sequence (P23760 whole entry, looked up) above

As usually defined, the IC50 is the midpoint of a concentration-inhibition curve. Consider `CC[C@H](C)C(=O)Nc1nc2c([nH]1)C(C)c1[nH]c(NC(=O)c3ccccc3)nc1CC2` (stereo partly specified), for which, in data set [1], the Activity entry is “Toxic”. In data set [2], this compound showed an IC50 of 26 µM.

For the compound `CC[C@H](C)C(=O)Nc1nc2c([nH]1)C(C)c1[nH]c(NC(=O)/C=C/c3ccccc3)nc1CC2` (stereo partly specified), the Activity entry in [1] is recorded as “Toxic”. For the same compound, half-maximal inhibition in data set [2] (IC50) required 42 µM.

Regarding `CC(C)=CC(=O)Nc1nc2c([nH]1)C(C)c1[nH]c(NC(=O)c3ccccc3)nc1CC2` (stereo unspecified), the inhibition entry in [3], in data set [4], in data set [6], in data set [7], in data set [8] and in [9] was “Active” in each case. Further, the inhibition result in data set [10], in data set [11], in [12], in data set [13], in [14] and in [15] was “Active” in each case. Further, the inhibition result in data set [16] and in [17] was “Active” in each case. The outcome in data set [5] was Active. The Activity entry in data set [1] is recorded as “Toxic”. The compound also showed an IC50 in data set [2] of 17 µM.

Take `CC1c2[nH]c(NC(=O)c3ccccc3)nc2CCc2nc(NC(=O)c3ccccc3)[nH]c21`: the outcome in data set [5] was Active. Further, the Activity entry in data set [1] was “Toxic”. In data set [2], this compound gave a concentration for half-maximal inhibition (IC50) of 13 µM.

On to `CC(C)C(=O)Nc1nc2c([nH]1)C(C)c1[nH]c(NC(=O)c3ccccc3)nc1CC2` (stereo unspecified), for which the Activity result in data set [1] was “Toxic”. The compound also registered an IC50 in data set [2] of 67 µM.
